Assay results published in patent US10758534B2 (Vertex Pharmaceuticals Incorporated, priority 2014, dated 2020).

Molecular target: T1, F508del (Homo sapiens, UniProt P13569, DEL508-508)
T1 construct: expressed in transfected cells
Assay: Protocol 2: FRET membrane potential optical assay (VIPR), identification of correction compounds
Format: cell-based
Conditions: Table 3; compounds of Table 1 as modulators of CFTR activity; protocol not stated
How it was run: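 Corrector readout: membrane-potential FRET (CC2-DMPE donor, DiSBAC2(3) acceptor) on VIPR II after Cl⁻-free gluconate bath with 10 μM forskolin and 20 μM genistein. Before this, F508del-expressing NIH3T3 cells were exposed to test compound for 16 h at 37 °C without serum; 27 °C incubation served as temperature-correction control.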

T1 sequence (P13569 with tags, fused parts or gaps DEL508-508): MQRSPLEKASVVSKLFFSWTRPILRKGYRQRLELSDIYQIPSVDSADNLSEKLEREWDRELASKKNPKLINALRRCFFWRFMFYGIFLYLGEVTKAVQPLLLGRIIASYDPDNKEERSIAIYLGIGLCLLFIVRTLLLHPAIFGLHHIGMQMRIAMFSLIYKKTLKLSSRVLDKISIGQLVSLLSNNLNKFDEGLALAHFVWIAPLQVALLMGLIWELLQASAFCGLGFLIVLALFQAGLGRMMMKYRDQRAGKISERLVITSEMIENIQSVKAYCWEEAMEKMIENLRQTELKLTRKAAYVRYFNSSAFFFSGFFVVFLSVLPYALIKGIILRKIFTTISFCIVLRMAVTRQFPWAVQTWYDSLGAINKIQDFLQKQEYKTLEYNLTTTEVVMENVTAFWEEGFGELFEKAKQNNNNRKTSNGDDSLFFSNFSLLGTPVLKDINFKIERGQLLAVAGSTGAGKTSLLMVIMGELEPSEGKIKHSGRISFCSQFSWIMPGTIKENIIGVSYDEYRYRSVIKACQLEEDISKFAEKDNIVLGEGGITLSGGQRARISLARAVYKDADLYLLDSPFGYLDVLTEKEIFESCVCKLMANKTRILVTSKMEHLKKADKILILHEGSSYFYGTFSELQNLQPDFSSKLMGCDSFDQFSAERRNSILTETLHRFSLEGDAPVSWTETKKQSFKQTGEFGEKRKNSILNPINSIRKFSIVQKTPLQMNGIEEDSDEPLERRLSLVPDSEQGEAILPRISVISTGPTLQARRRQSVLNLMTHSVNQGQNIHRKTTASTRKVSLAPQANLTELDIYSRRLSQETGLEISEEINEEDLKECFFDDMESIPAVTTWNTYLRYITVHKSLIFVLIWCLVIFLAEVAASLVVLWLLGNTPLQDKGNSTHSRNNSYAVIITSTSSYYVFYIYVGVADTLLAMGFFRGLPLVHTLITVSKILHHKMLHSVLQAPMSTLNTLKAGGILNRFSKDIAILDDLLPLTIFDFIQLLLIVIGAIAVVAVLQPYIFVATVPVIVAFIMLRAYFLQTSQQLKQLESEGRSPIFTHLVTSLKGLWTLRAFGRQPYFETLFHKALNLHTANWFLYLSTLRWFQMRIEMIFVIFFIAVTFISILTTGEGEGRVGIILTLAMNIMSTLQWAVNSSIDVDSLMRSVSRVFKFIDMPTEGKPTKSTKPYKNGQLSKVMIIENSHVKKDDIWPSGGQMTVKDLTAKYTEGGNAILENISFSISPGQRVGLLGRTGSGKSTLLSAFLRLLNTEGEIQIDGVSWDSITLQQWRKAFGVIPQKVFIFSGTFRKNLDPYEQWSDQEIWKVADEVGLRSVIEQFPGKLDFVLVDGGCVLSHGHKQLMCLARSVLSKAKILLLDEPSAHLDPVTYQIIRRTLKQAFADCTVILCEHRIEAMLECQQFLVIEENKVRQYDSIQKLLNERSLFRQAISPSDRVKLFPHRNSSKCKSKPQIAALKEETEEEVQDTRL

| Structure (SMILES) | EC30 |
| --- | --- |
| CCOc1cccc(-c2cc(C(=O)NS(=O)(=O)c3ccccc3)n(Cc3c(C)cccc3C)n2)c1 [Compound 280, N-(benzenesulfonyl)-2-[(2,6-dimethylphenyl)methyl]-5-(3-ethoxyphenyl)pyrazole-3-carboxamide] | +++ (“+++” means <3 uM) |
| Cc1cc(C)c(Oc2nc(-c3ccc(Cl)c(OC(C)C)c3)ccc2C(=O)NS(=O)(=O)c2cccc(N)n2)c(C)c1 [Compound 281, N-[(6-amino-2-pyridyl)sulfonyl]-6-(4-chloro-3-isopropoxy-phenyl)-2-(2,4,6-trimethylphenoxy)pyridine-3-carboxamide] | +++ (“+++” means <3 uM) |
| Cc1cccc(-c2nc(C(C)(C)C)ccc2C(=O)NS(=O)(=O)c2cccc(N)c2)c1 [Compound 282, N-(3-aminophenyl)sulfonyl-6-tert-butyl-2-(m-tolyl)pyridine-3-carboxamide] | ++ (“++” means between 3 uM and 10 uM) |
| Cc1cc(C)c(Oc2nc(C(C)(C)C)ccc2C(=O)NS(=O)(=O)c2ccnc(N)c2)c(C)c1 [Compound 283, N-[(2-amino-4-pyridyl)sulfonyl]-6-tert-butyl-2-(2,4,6-trimethylphenoxy)pyridine-3-carboxamide] | +++ (“+++” means <3 uM) |
| Cc1cc(C)c(Oc2nc(-c3ccoc3)ccc2C(=O)NS(=O)(=O)c2cccc(N)n2)c(C)c1 [Compound 284, N-[(6-amino-2-pyridyl)sulfonyl]-6-(3-furyl)-2-(2,4,6-trimethylphenoxy)pyridine-3-carboxamide] | +++ (“+++” means <3 uM) |
| Cc1cc(C)c(Oc2nc3c(cc2C(=O)NS(=O)(=O)c2cccc(N)n2)CCCC3)c(C)c1 [Compound 285, N-[(6-amino-2-pyridyl)sulfonyl]-2-(2,4,6-trimethylphenoxy)-5,6,7,8-tetrahydroquinoline-3-carboxamide] | +++ (“+++” means <3 uM) |
| Cc1cccc(C)c1Oc1nc(C(C)(C)C)ccc1C(=O)NS(=O)(=O)c1cccc(N)c1 [Compound 286, N-(3-aminophenyl)sulfonyl-6-tert-butyl-2-(2,6-dimethylphenoxy)pyridine-3-carboxamide] | +++ (“+++” means <3 uM) |
| CC(C1CCCCC1)n1nc(C(C)(C)C)cc1C(=O)NS(=O)(=O)c1cccc(N)c1 (stereo not drawn) [Compound 287, N-(3-aminophenyl)sulfonyl-5-tert-butyl-2-(1-cyclohexylethyl)pyrazole-3-carboxamide] | +++ (“+++” means <3 uM) |
| Cc1ccc(-c2nc(C(C)(C)C)ccc2C(=O)NS(=O)(=O)c2ccc(C#N)cc2)cc1 [Compound 288, 6-tert-butyl-N-(4-cyanophenyl)sulfonyl-2-(p-tolyl)pyridine-3-carboxamide] | +++ (“+++” means <3 uM) |
| CNc1cccc(S(=O)(=O)NC(=O)c2ccc(C(C)(C)C)nc2Oc2c(C)cc(C)cc2C)c1 [Compound 289, 6-tert-butyl-N-[3-(methylamino)phenyl]sulfonyl-2-(2,4,6-trimethylphenoxy)pyridine-3-carboxamide] | +++ (“+++” means <3 uM) |
| COc1cccc2c1cc(C(=O)NS(=O)(=O)c1ccccc1)n2Cc1c(C)cccc1C [Compound 290, N-(benzenesulfonyl)-1-[(2,6-dimethylphenyl)methyl]-4-methoxy-indole-2-carboxamide] | +++ (“+++” means <3 uM) |
| Cc1cc(C)c(Cn2c(C(=O)NS(=O)(=O)c3cccc(N)c3)cc3cc(C#N)ccc32)c(C)c1 [Compound 291, N-(3-aminophenyl)sulfonyl-5-cyano-1-[(2,4,6-trimethylphenyl)methyl]indole-2-carboxamide] | ++ (“++” means between 3 uM and 10 uM) |
| Cc1cc(C)c(Oc2nc(C(C)(C)C)ccc2C(=O)NS(=N)(=O)c2cccc(N)c2)c(C)c1 (stereo not drawn) [Compound 292, N-[(3-Aminophenyl)sulfonimidoyl]-6-tert-butyl-2-(2,4,6-trimethylphenoxy)pyridine-3-carboxamide] | +++ (“+++” means <3 uM) |
| Cc1cc(C)c(Cn2nc(-c3cccc(C)c3F)cc2C(=O)NS(=O)(=O)c2cccc(N)c2)c(C)c1 [Compound 293, N-(3-aminophenyl)sulfonyl-5-(2-fluoro-3-methyl-phenyl)-2-[(2,4,6-trimethylphenyl)methyl]pyrazole-3-carboxamide] | +++ (“+++” means <3 uM) |
| Cc1cc(C)c(Oc2nc(C(C)(C)C)ccc2C(=O)NS(=O)(=O)c2cccc(N)c2)c(C)c1 [Compound 294, N-(3-aminophenyl)sulfonyl-6-tert-butyl-2-(2,4,6-trimethylphenoxy)pyridine-3-carboxamide] | +++ (“+++” means <3 uM) |
| CC(C)(C)c1cc(C(=O)NS(=O)(=O)c2cccc(N)c2)n(Cc2cccc3ccccc23)n1 [Compound 295, N-(3-aminophenyl)sulfonyl-5-tert-butyl-2-(1-naphthylmethyl)pyrazole-3-carboxamide] | ++ (“++” means between 3 uM and 10 uM) |
| Cc1ccccc1Oc1nc(C(C)(C)C)ccc1C(=O)NS(=O)(=O)c1cccc(N)c1 [Compound 296, N-(3-aminophenyl)sulfonyl-6-tert-butyl-2-(2-methylphenoxy)pyridine-3-carboxamide] | +++ (“+++” means <3 uM) |
| Cc1ccc(-c2nc(C(C)(C)C)ccc2C(=O)NS(=O)(=O)c2ccc(N)cc2)cc1 [Compound 297, N-(4-aminophenyl)sulfonyl-6-tert-butyl-2-(p-tolyl)pyridine-3-carboxamide] | ++ (“++” means between 3 uM and 10 uM) |
| Cc1cc(C)c(Cn2c(C(=O)NS(=O)(=O)c3ccncc3)cc3c(F)cccc32)c(C)c1 [Compound 298, 4-fluoro-N-(4-pyridylsulfonyl)-1-[(2,4,6-trimethylphenyl)methyl]indole-2-carboxamide] | ++ (“++” means between 3 uM and 10 uM) |
| Cc1cc(C)c(CN2Cc3c(C(C)C)cccc3C2C(=O)NS(=O)(=O)c2cccc(N)c2)c(C)c1 (stereo not drawn) [Compound 299, N-(3-aminophenyl)sulfonyl-4-isopropyl-2-[(2,4,6-trimethylphenyl)methyl]isoindoline-1-carboxamide] | +++ (“+++” means <3 uM) |
| CC(C)COc1cc(F)cc(-c2ccc(C(=O)NS(=O)(=O)c3ccc[nH]c3=O)c(N3[C@H](C)CC[C@@H]3C)n2)c1 [Compound 307, 2-(2,5-dimethylpyrrolidin-1-yl)-6-(3-fluoro-5-isobutoxy-phenyl)-N-[(2-oxo-1H-pyridin-3-yl)sulfonyl]pyridine-3-carboxamide] | +++ (“+++” means <3 uM) |

More lines, now with the values ahead:

| EC30 | Structure (SMILES) |
| --- | --- |
| +++ (“+++” means <3 uM) | Cc1ccc(-c2ccc(C(=O)NS(=O)(=O)c3cc[nH]n3)c(Oc3c(C)cc(C)cc3C)n2)cc1 [Compound 300, 6-(p-tolyl)-N-(1H-pyrazol-3-ylsulfonyl)-2-(2,4,6-trimethylphenoxy)pyridine-3-carboxamide] |
| ++ (“++” means between 3 uM and 10 uM) | Cc1ccc(-c2nc(C(C)(C)C)ccc2C(=O)NS(=O)(=O)c2cccc(N)c2)cc1 [Compound 301, N-(3-aminophenyl)sulfonyl-6-tert-butyl-2-(p-tolyl)pyridine-3-carboxamide] |
| ++ (“++” means between 3 uM and 10 uM) | Cc1cccc(C)c1Cn1nc(-c2cccc(CN3CCOCC3)c2)cc1C(=O)NS(=O)(=O)c1ccccc1 [Compound 302, N-(benzenesulfonyl)-2-[(2,6-dimethylphenyl)methyl]-5-[3-(morpholinomethyl)phenyl]pyrazole-3-carboxamide] |
| +++ (“+++” means <3 uM) | CC(C)(C)c1cc(C(=O)NS(=O)(=O)c2cccc(N)c2)n(Cc2c(Cl)cc(Cl)cc2Cl)n1 [Compound 303, N-(3-aminophenyl)sulfonyl-5-tert-butyl-2-[(2,4,6-trichlorophenyl)methyl]pyrazole-3-carboxamide] |
| +++ (“+++” means <3 uM) | Cc1ccc(C(F)(F)F)c(Cn2nc(C(C)(C)C)cc2C(=O)NS(=O)(=O)c2ccccc2)c1 [Compound 304, N-(benzenesulfonyl)-5-tert-butyl-2-[[5-methyl-2-(trifluoromethyl)phenyl]methyl]pyrazole-3-carboxamide] |
| +++ (“+++” means <3 uM) | Cc1cc(C)c(Oc2nc(C(C)(C)C)ccc2C(=O)NS(=O)(=O)c2cccc(=O)[nH]2)c(C)c1 [Compound 305, 6-tert-butyl-N-[(6-oxo-1H-pyridin-2-yl)sulfonyl]-2-(2,4,6-trimethylphenoxy)pyridine-3-carboxamide] |
| +++ (“+++” means <3 uM) | Cc1cc(C)c(Cn2c(C(=O)NS(=O)(=O)c3cccc(N)c3)cc3c(C#N)cccc32)c(C)c1 [Compound 306, N-(3-aminophenyl)sulfonyl-4-cyano-1-[(2,4,6-trimethylphenyl)methyl]indole-2-carboxamide] |
| +++ (“+++” means <3 uM) | CC(C)(C)c1ccc(C(=O)NS(=O)(=O)c2cccc(N)c2)c(-c2ccc3c(c2)CCC3)n1 [Compound 308, N-(3-aminophenyl)sulfonyl-6-tert-butyl-2-indan-5-yl-pyridine-3-carboxamide] |
| +++ (“+++” means <3 uM) | Cc1cc(C)c(CN2CCc3ccccc3C2C(=O)NS(=O)(=O)c2cccc(N)c2)c(C)c1 (stereo not drawn) [Compound 309, N-(3-aminophenyl)sulfonyl-2-[(2,4,6-trimethylphenyl)methyl]-3,4-dihydro-1H-isoquinoline-1-carboxamide] |
| +++ (“+++” means <3 uM) | Cc1cc(C)c(CN2Cc3ccccc3[C@@H]2C(=O)NS(=O)(=O)c2cccc(N)c2)c(C)c1 [Compound 310, (1R)—N-(3-aminophenyl)sulfonyl-2-[(2,4,6-trimethylphenyl)methyl]isoindoline-1-carboxamide] |
| +++ (“+++” means <3 uM) | Cc1cc(C)c(Oc2nc(C(C)(C)C)ccc2C(=O)NS(=O)(=O)c2cccc(N(C)C)c2)c(C)c1 [Compound 311, 6-tert-butyl-N-[3-(dimethylamino)phenyl]sulfonyl-2-(2,4,6-trimethylphenoxy)pyridine-3-carboxamide] |
| +++ (“+++” means <3 uM) | Cc1ccc(S(=O)(=O)NC(=O)c2cc(C(C)(C)C)nn2Cc2c(C)cccc2C)cc1N [Compound 312, N-(3-amino-4-methyl-phenyl)sulfonyl-5-tert-butyl-2-[(2,6-dimethylphenyl)methyl]pyrazole-3-carboxamide] |
